{
  "source": "patent US10799475B2",
  "about": "“Substituted phenyl aziridine precursor analogs for inhibiting androgen-independent prostate cancer cell growth” (Northwestern University, priority 2007, dated 2020)",
  "key": {"[1]": {"tested_on": "NF-κB", "experiment": "κB.Luc dual Luciferase assay of GR transrepression in PC cells", "type": "cell-based, human", "settings": "all studied prostate cells, basal and IKKβ-induced, CpdA 10^−5 M, 24 hours"}, "[2]": {"molecular_target": "T1, AR (Homo sapiens, UniProt P10275, T878A)", "T1 construct": "epithelial cells expressing endogenous AR, LNCaP prostate cells were studied; endogenous in cells; host or cells: LNCaP", "T1 sequence (P10275 1-920 T878A)": "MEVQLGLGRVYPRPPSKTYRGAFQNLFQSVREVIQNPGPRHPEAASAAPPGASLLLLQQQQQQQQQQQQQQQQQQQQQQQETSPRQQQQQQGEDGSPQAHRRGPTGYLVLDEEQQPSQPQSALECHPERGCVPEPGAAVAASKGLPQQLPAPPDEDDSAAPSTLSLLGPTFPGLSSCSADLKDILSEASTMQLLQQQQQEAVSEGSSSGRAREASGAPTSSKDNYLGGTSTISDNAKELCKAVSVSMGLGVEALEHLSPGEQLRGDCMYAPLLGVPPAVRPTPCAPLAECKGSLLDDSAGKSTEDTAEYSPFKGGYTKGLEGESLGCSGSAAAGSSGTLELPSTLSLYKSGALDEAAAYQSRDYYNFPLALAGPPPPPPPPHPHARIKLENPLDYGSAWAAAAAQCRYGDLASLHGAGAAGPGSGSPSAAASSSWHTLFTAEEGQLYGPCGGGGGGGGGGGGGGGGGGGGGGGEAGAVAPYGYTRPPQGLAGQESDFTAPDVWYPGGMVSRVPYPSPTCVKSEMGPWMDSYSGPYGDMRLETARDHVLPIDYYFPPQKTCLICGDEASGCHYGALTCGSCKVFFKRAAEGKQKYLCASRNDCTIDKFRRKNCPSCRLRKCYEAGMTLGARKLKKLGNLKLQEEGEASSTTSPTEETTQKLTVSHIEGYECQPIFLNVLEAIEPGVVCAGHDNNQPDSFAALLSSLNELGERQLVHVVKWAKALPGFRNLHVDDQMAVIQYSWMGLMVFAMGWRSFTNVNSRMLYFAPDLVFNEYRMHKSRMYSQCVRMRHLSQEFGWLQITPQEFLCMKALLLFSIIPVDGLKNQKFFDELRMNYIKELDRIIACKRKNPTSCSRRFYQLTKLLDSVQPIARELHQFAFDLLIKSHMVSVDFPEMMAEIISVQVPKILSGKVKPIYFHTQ", "experiment": "AR nuclear translocation, Western blot and immunofluorescence in LNCaP cells", "type": "cell-based", "settings": "16 hours"}, "[3]": {"molecular_target": "T1, AR", "experiment": "EMSA of AR-DNA binding in LNCaP cells", "type": "cell-based"}},
  "data": [
    {"compound": "CNCC(Cl)c1ccc(OC(C)=O)cc1.Cl", "note": "(stereo not drawn) [CpdA, 2-(4-acetoxyphenyl)-2-chloro-N-methyl-ethylammonium chloride]", "values": [
      {"measurement": "NF-κB function (κB.Luc)", "setting": "[1]", "result": "strongly inhibited"},
      {"measurement": "AR nuclear translocation", "setting": "[2]", "result": "induce AR nuclear translocation"},
      {"measurement": "AR DNA binding", "setting": "[3]", "result": "constitutively inhibit AR DNA binding and especially DHT-induced AR DNA binding"}
    ]}
  ]
}
